Laboratory results as given in article PMC12910498 (ACS pharmacology & translational science, 2026).
Read-outs that look alike come from different tables or passages of the source.

Tests used:
[1] = Phase I metabolic stability in rat liver microsomes (with NADPH); format: in vitro ADME; details: pH 7.4, presence of NADPH, mean ± SD, n = 3
Description: (§1) We evaluated the Phase I metabolic stability of compounds 2−7 and 14−19 using rat and human liver microsomes, as previously described.[45]
(§2) Phase I metabolic stability assays were conducted using rat and human liver microsomes as previously described[45],[70] with minor modifications. In brief, the reactions were carried out with 100 mM potassium phosphate buffer, pH 7.4, in the presence of NADPH regenerating system (1.3 mM NADPH, 3.3 mM glucose 6-phosphate, 3.3 mM MgCl2, 0.4 U/mL glucose-6-phosphate dehydrogenase, 50 μM sodium citrate). Negative controls without cofactors were assessed to determine the non-CYP-mediated metabolism. Compound disappearance was monitored over time using a liquid chromatography and tandem mass spectrometry (LC/MS) method. All reactions were performed in triplicate.
(§3) Chromatographic analysis was performed on a Dionex ultra high-performance LC system coupled with Q Exactive Focus orbitrap mass spectrometer (Thermo Fisher Scientific Inc., Waltham MA). Separation was achieved using Agilent Eclipse Plus column (100 × 2.1 mm^2 i.d.; maintained at 35 °C) packed with a 1.8 μm C18 stationary phase. […] The total run time for each analyte was 6.5 min. Pumps were operated at a flow rate of 0.3 mL/min. The mass spectrometer controlled by Xcalibur software 4.0.27.13 (Thermo Scientific) was operated with a HESI ion source in positive ionization mode. Compounds were identified in the full-scan mode (from m/z 50 to 750) by comparing t = 0 samples with t = 30 min and t = 60 min samples.

[2] = Phase I metabolic stability in human liver microsomes (with NADPH); format: in vitro ADME; details: pH 7.4, presence of NADPH, mean ± SD, n = 3
Description: as §1, §2, §3

human D3R [3] = target: T1, human D3R (Homo sapiens, UniProt P35462); parameters: host or cells: CHO-K1; method as in PMID 30883109; details: previously reported, cited from earlier work; for D3R Emax (%): agonist mode
human D4R [4] = target: T2, human D4R (Homo sapiens, UniProt P21917); parameters: host or cells: CHO-K1; method as in PMID 30883109; details: previously reported, cited from earlier work; for D4R Emax (%): agonist mode; for D4R Ant. (%): antagonist mode
T2 sequence (P21917 1-419): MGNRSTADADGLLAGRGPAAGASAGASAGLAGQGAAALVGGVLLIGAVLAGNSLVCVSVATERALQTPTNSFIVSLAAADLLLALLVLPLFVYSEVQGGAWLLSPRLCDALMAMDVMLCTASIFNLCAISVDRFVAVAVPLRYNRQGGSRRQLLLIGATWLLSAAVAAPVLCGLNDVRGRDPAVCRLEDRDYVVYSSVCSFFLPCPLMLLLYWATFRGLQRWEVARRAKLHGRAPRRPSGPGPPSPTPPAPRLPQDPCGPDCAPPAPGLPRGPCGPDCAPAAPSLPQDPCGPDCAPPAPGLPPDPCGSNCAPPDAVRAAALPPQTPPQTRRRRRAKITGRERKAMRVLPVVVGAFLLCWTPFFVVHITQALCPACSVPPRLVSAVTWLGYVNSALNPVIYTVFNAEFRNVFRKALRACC

human D3R [5] = target: T1, human D3R; parameters: expressed in transfected cells; host or cells: HEK293; method as in PMID 30883109; details: HEK293 membranes, hD3R; previously reported; read-out: Ki (nM) ± SEM [3H]N-methlyspiperone D3R; cited from earlier work
human D4R [6] = target: T2, human D4R; details: for D4R Ant. (%): antagonist mode, 10 μM forskolin and 10 nM dopamine, normalized to spiperone; for Emax: read-out: D4R Emax (%)
[7] = Non-Phase I metabolic stability in human liver microsomes (absence of NADPH); format: in vitro ADME
Description: We also evaluated the non-Phase I metabolic stability of compounds 2−7 and 14−19 using rat and human liver microsomes. […] This may represent metabolism by hydrolases that can specifically attack the amide. Evidence in support of this hypothesis is shown by the remarkable stability of all triazole analogs (14−19) in the absence of NADPH in Figure 5B,D.
as §2
Chromatographic analysis was performed on a Dionex ultra high-performance LC system coupled with Q Exactive Focus orbitrap mass spectrometer (Thermo Fisher Scientific Inc., Waltham MA). Separation was achieved using Agilent Eclipse Plus column (100 × 2.1 mm^2 i.d.; maintained at 35 °C) packed with a 1.8 μm C18 stationary phase. […] The total run time for each analyte was 6.5 min. […]

[8] = Aqueous solubility (remark); format: physicochemical; details: remark in text
human D2R long isoform = human D2R long isoform (Homo sapiens, UniProt P14416); parameters: host or cells: CHO-K1; method as in PMID 30883109; details: antagonist mode; previously reported; cited from earlier work
[9] = Pharmacokinetics study in rats (plasma and brain); format: in vivo, Sprague−Dawley rats; details: rat, 5 mg/kg IP
Description: Given their adequate in vitro stability profiles, we next evaluated the in vivo pharmacokinetic profiles of 14, 15, 17, and 18 in rats. Sprague−Dawley rats were dosed with 5 mg/kg (14, 15, 17) or 10 mg/kg (18), i.p., and plasma and brain levels of each drug were measured 0−6 h postdose.
All animal experiments were performed following the protocols evaluated and approved by the Animal Care and Use Committee at Johns Hopkins University (Ethics Approval Number: RA24M403). Pharmacokinetic studies in Sprague−Dawley (SD) rats were conducted according to protocols approved. SD rats obtained from Harlan were maintained on a 12 h light−dark cycle with ad libitum access to food and water. Test compound was administered via i.p. injection at a dose of 10 mg/kg (100% saline vehicle, 10 mL/kg volume). The rats were sacrificed at specified time points (0.25, 0.5 h, 1, 2, 4, and 6 h) post drug administration. For the collection of plasma and brain tissue, animals were euthanized with CO2, and blood samples were collected in heparinized microtubes by cardiac puncture. Brains were dissected and immediately flash-frozen (−80 °C). Blood samples were spun at 2000g for 15 min, and plasma was removed and stored at −80 °C until analysis (as described below).
Quantitation of triazole analogs 14, 15, 17, and 18 was performed using liquid chromatography with tandem mass spectrometry (LC/MS-MS) methods. Briefly, calibration standards were prepared using respective tissue (naïve plasma and brain) with additions of the test compounds. For quantifying the test compounds in the pharmacokinetic samples, plasma samples (20 μL) were processed using a single liquid extraction method by addition of 100 μL of acetonitrile containing internal standard (losartan: 0.5 μM), followed by vortex-mixing for 30 s and then centrifugation at 10,000g for 10 min at 4 °C. Brain tissues were diluted 1:5 w/v with acetonitrile containing losartan (0.5 μm) and homogenized, followed by vortex-mixing and centrifugation at 10,000g for 10 min at 4 °C. A 50 μL aliquot of the supernatant was diluted with 50 μL of water and transferred to 250 μL polypropylene autosampler vials sealed with Teflon caps. Two μL of the sample was injected into the LC/MS/MS system for analysis. Chromatographic analysis was performed using an Accela ultra high-performance system consisting of an analytical pump and an autosampler coupled with a TSQ Vantage mass spectrometer. […] The mobile phase consisted of 0.1% formic acid in acetonitrile and 0.1% formic acid in water with gradient elution, starting with 10% organic phase (from 0 to 1 min) linearly increasing to 95% (from 1 to 2 min), and re-equilibrating to 10% by 3 min. The total run time for each analyte was 3.5 min. Pumps were operated at a flow rate of 0.4 mL/min. […] Plasma concentrations (nmol/mL) as well as brain tissue concentrations (nmol/g) were determined and plots of mean plasma concentration versus time were constructed. Noncompartmental analysis modules in Phoenix WinNonlin version 7.0 (Certara USA, Inc., Princeton, NJ) were used to quantify exposures (AUC0−t) and half-life (t1/2).

D1 = target: T3, D1 (Homo sapiens, UniProt P21728); assay: PDSP primary screen and secondary assay, D1; format: binding; details: 10 µM compound
T3 construct: Psychoactive Drug Screening Program (PDSP)
Text: (§4) Receptor Primary Secondary Primary Secondary Primary Secondary Primary Secondary screen assay screen assay screen assay screen assay […]
(§5) inhibition in primary assessment.

D5 = target: T4, D5 (Homo sapiens, UniProt P21918); assay: PDSP primary screen, D5; format: binding; details: 10 µM compound
T4 construct: Psychoactive Drug Screening Program (PDSP)
Text: as §4, §5

human D2LR = human D2LR (Homo sapiens, UniProt P14416); assay: biochemical
human D3R [10] = target: T1, human D3R; assay: biochemical
human D4R [11] = target: T2, human D4R; assay: DiscoverX PathHunter β-arrestin recruitment assay, D4R
human D4R [12] = target: T2, human D4R; assay: [3H]N-methylspiperone radioligand competition binding, hD4R membranes

T1 sequence (P35462 whole entry): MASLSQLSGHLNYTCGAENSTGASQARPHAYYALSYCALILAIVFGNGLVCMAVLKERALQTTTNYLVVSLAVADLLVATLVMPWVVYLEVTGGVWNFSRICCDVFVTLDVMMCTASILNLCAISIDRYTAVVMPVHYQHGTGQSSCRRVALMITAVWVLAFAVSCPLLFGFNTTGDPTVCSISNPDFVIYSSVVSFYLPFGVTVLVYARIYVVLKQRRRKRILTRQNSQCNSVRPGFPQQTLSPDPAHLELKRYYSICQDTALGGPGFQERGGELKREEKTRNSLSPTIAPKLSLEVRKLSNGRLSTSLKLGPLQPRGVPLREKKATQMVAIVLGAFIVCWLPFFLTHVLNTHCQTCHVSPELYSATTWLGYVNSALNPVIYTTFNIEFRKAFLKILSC
human D2R long isoform, sequence (P14416 whole entry, canonical isoform): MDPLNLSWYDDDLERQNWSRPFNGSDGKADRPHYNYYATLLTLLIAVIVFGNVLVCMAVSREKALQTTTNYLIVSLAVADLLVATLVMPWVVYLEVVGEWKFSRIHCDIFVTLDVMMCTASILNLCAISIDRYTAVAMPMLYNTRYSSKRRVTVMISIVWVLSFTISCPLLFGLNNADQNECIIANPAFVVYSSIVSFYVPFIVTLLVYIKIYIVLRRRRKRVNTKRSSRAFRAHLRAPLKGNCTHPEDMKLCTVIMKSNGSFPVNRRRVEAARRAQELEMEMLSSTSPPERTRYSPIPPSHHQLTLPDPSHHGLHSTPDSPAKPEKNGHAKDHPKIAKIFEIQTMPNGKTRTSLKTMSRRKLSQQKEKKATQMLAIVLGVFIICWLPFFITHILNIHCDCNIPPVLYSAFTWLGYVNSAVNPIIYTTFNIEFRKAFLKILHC
human D2LR, sequence (P14416 whole entry): as the sequence (P14416 whole entry, canonical isoform) above
T4 sequence (P21918 whole entry): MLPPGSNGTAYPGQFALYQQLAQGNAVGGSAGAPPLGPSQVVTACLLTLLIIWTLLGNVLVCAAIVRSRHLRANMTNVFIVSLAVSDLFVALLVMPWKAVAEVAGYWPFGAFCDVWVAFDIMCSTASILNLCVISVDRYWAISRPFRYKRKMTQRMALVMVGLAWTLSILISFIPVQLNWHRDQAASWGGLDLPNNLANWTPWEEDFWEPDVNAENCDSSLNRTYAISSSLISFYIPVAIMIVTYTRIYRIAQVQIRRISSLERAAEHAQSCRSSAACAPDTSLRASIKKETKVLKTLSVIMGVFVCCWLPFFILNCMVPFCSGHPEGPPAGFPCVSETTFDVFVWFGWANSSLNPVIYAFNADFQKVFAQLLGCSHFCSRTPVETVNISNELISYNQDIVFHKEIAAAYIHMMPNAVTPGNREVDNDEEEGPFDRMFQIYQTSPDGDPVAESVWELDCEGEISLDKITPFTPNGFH
T3 sequence (P21728 whole entry): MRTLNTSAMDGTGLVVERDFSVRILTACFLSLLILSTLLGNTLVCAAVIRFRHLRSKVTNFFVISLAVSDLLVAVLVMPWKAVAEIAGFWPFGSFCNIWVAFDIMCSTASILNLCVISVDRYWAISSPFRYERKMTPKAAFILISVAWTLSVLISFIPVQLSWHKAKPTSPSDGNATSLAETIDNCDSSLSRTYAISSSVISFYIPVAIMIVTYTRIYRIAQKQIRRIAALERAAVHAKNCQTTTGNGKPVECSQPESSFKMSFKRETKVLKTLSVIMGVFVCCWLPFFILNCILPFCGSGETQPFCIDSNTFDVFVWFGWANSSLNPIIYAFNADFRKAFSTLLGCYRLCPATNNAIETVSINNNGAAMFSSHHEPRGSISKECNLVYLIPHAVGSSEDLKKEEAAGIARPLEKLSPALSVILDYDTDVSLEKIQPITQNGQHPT

In the case of `Cc1cccc(NC(=O)CN2CCN(c3ccccn3)CC2)c1` [Compound 2], the half-life [1] is listed as 9.92 ± 0.18 min, the half-life [2] is listed as 67 ± 2.41 min and the “D3R Emax (%)” value (human D3R [3]) is listed as 49.4 ± 2.0%. The IC50 (human D3R [3]; antagonist mode) was over 100 µM, the “D4R Emax (%)” value (human D4R [4]) was 30.7 ± 6.4% and the “D4R Ant. (%)” value (human D4R [4]) was 78.9 ± 3.1%. For the same compound, the Ki (human D3R [5]) was over 10000 nM, the EC50 (human D4R [6]) was 0.00292 ± 0.00015 µM and the “D4R Ant. (%)” value (human D4R [6]; cAMP) was 16 ± 1%. It also gave an Emax (human D4R [6]) of 65 ± 3%.
For `CCc1cccc(NC(=O)CN2CCN(c3ccccn3)CC2)c1` [Compound 3], the half-life [1] was 20.8 ± 1.99 min, the half-life [2] was 249 ± 66.5 min and the “non-Phase I metabolic stability” value [7] was “nonexistent”. The “D3R Emax (%)” value (human D3R [3]) was 44.7 ± 5.9%, the “D3R Ant. (%)” value (human D3R [3]; antagonist mode) was 100 ± 0% and the “D4R Emax (%)” value (human D4R [4]) was 26.2 ± 5.1%. For the same compound, the “D4R Ant. (%)” value (human D4R [4]) was 59.7 ± 4.6%, the EC50 (human D4R [6]) was 0.00538 ± 0.00108 µM and the IC50 (human D4R [6]) was 0.267 ± 0.115 µM. The “D4R Ant. (%)” value (human D4R [6]; cAMP) was 30 ± 1% and the Emax (human D4R [6]) was 59 ± 4%.
For `Cc1cccc(NC(=O)CN2CCN(c3ncccn3)CC2)c1` [Compound 4], the half-life [1] is given as 26.83 ± 0.21 min, the half-life [2] is given as 39.8 ± 2.16 min and the “D3R Emax (%)” value (human D3R [3]) is given as 58.4 ± 6.6%. The IC50 (human D3R [3]; antagonist mode) was over 100 µM, the “D4R Emax (%)” value (human D4R [4]) was 24.7 ± 5% and the “D4R Ant. (%)” value (human D4R [4]) was 80.6 ± 3.0%. For the same compound, the Ki (human D3R [5]) was over 10000 nM, the EC50 (human D4R [6]) was 0.00793 ± 0.00212 µM and the “D4R Ant. (%)” value (human D4R [6]; cAMP) was 29 ± 5%. It also gave an Emax (human D4R [6]) of 60 ± 4%.
With `Cc1cccc(NC(=O)CN2CCN(c3cccc4ccccc34)CC2)c1` [Compound 6] the half-life [1] was 10.5 ± 0.03 min, the half-life [2] was 16.6 ± 0.17 min and the “non-Phase I metabolic stability” value [7] was “relatively little non-Phase I metabolism”. The aqueous solubility [8] was “poor aqueous solubility”, the “D2R Ant (%)” value (human D2R long isoform) was 100 ± 0% and the “D4R Emax (%)” value (human D4R [4]) was 16.4 ± 3.9%. The “D4R Ant. (%)” value (human D4R [4]) was 96.7 ± 2.7%, the IC50 (human D4R [6]) was over 50 µM and the “D4R average activity at the highest tested dose” value (human D4R [6]; cAMP, agonist mode, at 33 μM (Emax ND)) was “ND (16% at 33 μM)”. For the same compound, the “D4R Ant. (%)” value (human D4R [6]; cAMP) was 91 ± 7%.
For `Cc1cccc(NC(=O)CN2CCN(c3ccc(Cl)cn3)CC2)c1` [Compound 7], the half-life [1] is given as 9.51 ± 0.12 min, the half-life [2] is given as 74.2 ± 4.56 min and the “D2R Ant (%)” value (human D2R long isoform) is given as 100 ± 0%. The Ki (human D3R [5]) was over 50000 nM, the IC50 (human D4R [6]) was 2.87 ± 0.817 µM and the “D4R Ant. (%)” value (human D4R [6]; cAMP) was 110 ± 7%.
In the case of `Cc1cccc(-n2cc(CN3CCN(c4ccc(Cl)cn4)CC3)nn2)c1` [Compound 17, 1-(5-Chloropyridin-2-yl)-4-((1-(m-tolyl)-1H-1,2,3-triazol-4-yl)methyl)piperazine], the half-life [1] is reported as 64.8 ± 2.12 min, the half-life [2] is reported as 46.8 ± 6.69 min and the Kp ([9]; Sprague-Dawley, brain and plasma, ip, 5 mg/kg, AUC brain/plasma, read-out: brain: Plasma ratio) is reported as 0.3. For the same compound, the half-life ([9]; Sprague-Dawley, brain, ip, 5 mg/kg, brain, read-out: half-life (h) brain (converted)) was 2.36 h, the half-life ([9]; Sprague-Dawley, plasma and brain, ip, 5 mg/kg, tissue not specified, read-out: half-life (converted)) was at least 2.1 h and the half-life ([9]; Sprague-Dawley, plasma, ip, 5 mg/kg, plasma, read-out: half-life (h) plasma (converted)) was 2.1 h. The Tmax ([9]; Sprague-Dawley, brain, read-out: Tmax (h) brain) was 0.25 h, the AUC ([9]; Sprague-Dawley, plasma) was 15.1 ± 1.83 µM·h and the Cmax ([9]; Sprague-Dawley, plasma) was 10 ± 1.27 µM. The Tmax ([9]; Sprague-Dawley, plasma, read-out: Tmax (h) plasma) was 0.25 h, the AUC brain ([9]; brain) was 4.57 ± 0.50 nmol·h/g and the Cmax brain ([9]; brain) was 3.04 ± 0.45 nmol/g. The “peak in vivo brain concentrations expected” value ([9]; from brain Cmax) was “greater than 3.0 μM”, the inhibition at 10 µM (D1) was 16.7% and the inhibition at 10 µM (D5) was 6.22%. For the same compound, the Ki (human D2LR) was over 100 µM, the Ki (human D3R [10]) was over 100 µM and the IC50 (human D4R [11]) was 3.8 ± 0.72 µM. The “D4R Ant. (%)” value (human D4R [11]; antagonist mode, EC80 dopamine (1 μM), normalized to spiperone) was 91.6 ± 4.7%, the Ki (human D4R [12]) was 0.0777 ± 0.0199 µM and the “Selectivity D2R/D4R” value (human D4R [12]; ratio of Ki values) was over 1287. For the same compound, the “Selectivity D3R/D4R” value (human D4R [12]; ratio of Ki values) was over 1287, the IC50 (human D4R [6]) was 0.134 ± 0.0364 µM and the “D4R Ant. (%)” value (human D4R [6]; cAMP) was 85 ± 1%.
